Laboratory results reported in patent US8124780B2, “Benzimidazole compound” (priority 2005, dated 2012).
Where a name gives a salt, the structure may show the parent alone. Read-outs that look alike come from different tables or passages of the source.

System: gastric acid secretion
Assay: animal or person
Assay type: in vivo, dog
Conditions: Canis lupus familiaris
[1] = iv, 24 h, read-out: Persistency of inhibitory effect against gastric acid secretion (%)
[2] = iv, read-out: Inhibitory effect against gastric acid secretion (%)

Row | SMILES | inhibition in vivo at 0.8 mg/kg [1] [%] | inhibition in vivo at 0.8 mg/kg [2] [%] | inhibition in vivo at 1.6 mg/kg [1] [%] | inhibition in vivo at 1.6 mg/kg [2] [%] | other results
1 | Cc1c(OCCC2COC(C)(C)O2)ccnc1C[S+]([O-])c1nc2ccccc2[nH]1 (centres unmarked) [Example 64, 2-(((4-(2-(2,2-dimethyl-1,3-dioxolan-4-yl)ethoxy)-3-methylpyridin-2-yl)methyl)sulfinyl)-1H-benzimidazole sodium salt] | 78 | 100 | – | – | –
2 | CCC1(CC)OCC(COc2ccnc(C[S+]([O-])c3nc4ccccc4[nH]3)c2C)O1 (centres unmarked) [Example 65, 2-(((4-((2,2-diethyl-1,3-dioxolan-4-yl)methoxy)-3-methylpyridin-2-yl)methyl)sulfinyl)-1H-benzimidazole sodium salt] | – | – | 91 | 100 | –
3 | Cc1c(OCC2OCCO2)ccnc1C[S+]([O-])c1nc2ccccc2[nH]1 (centres unmarked) [Example 66, 2-(((4-(1,3-dioxolan-2-ylmethoxy)-3-methylpyridin-2-yl)methyl)sulfinyl)-1H-benzimidazole sodium salt] | – | – | 79 | 100 | –
4 | Cc1c(OCC2(C)OCCO2)ccnc1C[S+]([O-])c1nc2ccccc2[nH]1 (centres unmarked) [Example 67, 2-(((3-methyl-4-((2-methyl-1,3-dioxolan-2-yl)methoxy)pyridin-2-yl)methyl)sulfinyl)-1H-benzimidazole sodium salt] | – | – | 83 | 100 | –
5 | Cc1c(OCCC2(C)OCCO2)ccnc1C[S+]([O-])c1nc2ccccc2[nH]1 (centres unmarked) [Example 69, 2-(((3-methyl-4-(2-(2-methyl-1,3-dioxolan-2-yl)ethoxy)pyridin-2-yl)methyl)sulfinyl)-1H-benzimidazole sodium salt] | – | – | 78 | 100 | –
6 | Cc1c(OCC2(C)OCCO2)ccnc1C[S+]([O-])c1nc2ccccc2[nH]1 (stereo not drawn) [Example 70, Sodium salt of an optical isomer of 2-(((3-methyl-4-((2-methyl-1,3-dioxolan-2-yl)methoxy)pyridin-2-yl)methyl)sulfinyl)-1H-benzimidazole] | – | – | – | – | inhibition in vivo at 1.6 mg/kg (i.d., 24 h, dose 1.6 mg/kg i.d., second day, 24 hours after administration, histamine i.v., read-out: Persistency of inhibitory effect against gastric acid secretion (%)): 77%; inhibition in vivo at 1.6 mg/kg (i.d., dose 1.6 mg/kg i.d., first day, 1 h 40 min to 2 h after administration, histamine i.v., read-out: Inhibitory effect against gastric acid secretion (%)): 100%
7 | Cc1c(OCCC2(C)OCC3(CO2)OCCO3)ccnc1C[S+]([O-])c1nc2ccccc2[nH]1 (centres unmarked) [Example 73, 2-(((3-methyl-4-(2-(8-methyl-1,4,7,9-tetraoxaspiro[4.5]dec-8-yl)ethoxy)pyridin-2-yl)methyl)sulfinyl)-1H-benzimidazole sodium salt] | 94 | 100 | – | – | –
8 | CC1(CCOc2ccnc(C[S+]([O-])c3nc4ccccc4[nH]3)c2)OCC2(CO1)OCCO2 (centres unmarked) [Example 75, 2-(((4-(2-(8-methyl-1,4,7,9-tetraoxaspiro[4.5]dec-8-yl)ethoxy)pyridin-2-yl)methyl)sulfinyl)-1H-benzimidazole sodium salt] | 75 | 85 | – | – | –
9 | Cc1c(OC2CCC3(CC2)OCC(C)(C)CO3)ccnc1C[S+]([O-])c1nc2ccccc2[nH]1 (centres unmarked) [Example 81, 2-(((4-((3,3-dimethyl-1,5-dioxaspiro[5.5]undec-9-yl)oxy)-3-methylpyridin-2-yl)methyl)sulfinyl)-1H-benzimidazole sodium salt] | 70 | 96 | – | – | –
10 | [O-][S+](Cc1cc(OC2COC3(CCC3)OC2)ccn1)c1nc2ccccc2[nH]1 (centres unmarked) [Example 83, 2-(((4-(5,9-dioxaspiro[3.5]non-7-yloxy)pyridin-2-yl)methyl)sulfinyl)-1H-benzimidazole sodium salt] | 94 | 71 | – | – | –
11 | Cc1c(OCC2OCC3(CCC3)CO2)ccnc1C[S+]([O-])c1nc2ccccc2[nH]1 (centres unmarked) [Example 85, 2-(((4-(6,8-dioxaspiro[3.5]non-7-ylmethoxy)-3-methylpyridin-2-yl)methyl)sulfinyl)-1H-benzimidazole sodium salt] | 86 | 100 | – | – | –
12 | Cc1c(OCCC2OCC(C)(C)CO2)ccnc1C[S+]([O-])c1nc2ccccc2[nH]1 (centres unmarked) [Example 86, 2-(((4-(2-(5,5-dimethyl-1,3-dioxan-2-yl)ethoxy)-3-methylpyridin-2-yl)methyl)sulfinyl)-1H-benzimidazole sodium salt] | 75 | 100 | – | – | –
13 | Cc1c(OCC2COCO2)ccnc1C[S+]([O-])c1nc2ccccc2[nH]1 (centres unmarked) [Example 87, 2-(((4-(1,3-dioxolan-4-ylmethoxy)-3-methylpyridin-2-yl)methyl)sulfinyl)-1H-benzimidazole sodium salt] | 92 | 100 | – | – | –
